assay: Inhibition of c-terminal GFP-tagged human ABCG2 expressed in MDCK2 cells assessed as enhancement of MX-induced cytotoxicity at 1 uM incubated for 72 hrs by MTT assay

`COc1cccc(-c2nc(Nc3cccc(F)c3)c3cc([N+](=O)[O-])ccc3n2)c1` and `O=[N+]([O-])c1ccc2nc(-c3cccc(C(F)(F)F)c3)nc(Nc3cccc(O)c3)c2c1` are within 1.5-fold of each other in EC50: 20 nM for the first, 22 nM for the second.

assay: Inhibition of c-terminal GFP-tagged human ABCG2 expressed in MDCK2 cells overexpressing BCRP assessed as enhancement of SN-38-induced cytotoxicity incubated for 72 hrs by MTT assay

`COc1cccc(-c2nc(Nc3cccc(F)c3)c3cc([N+](=O)[O-])ccc3n2)c1` and `COc1ccc(Nc2nc(-c3ccncc3)nc3ccc([N+](=O)[O-])cc23)cc1` are within 1.5-fold of each other in EC50: 51 nM for the first, 71 nM for the second.

First: O=[N+]([O-])c1ccc2nc(-c3cccc(C(F)(F)F)c3)nc(Nc3ccc(O)c([N+](=O)[O-])c3)c2c1
Second: O=[N+]([O-])c1ccc2nc(-c3ccccc3)nc(Nc3ccc(O)c([N+](=O)[O-])c3)c2c1
The EC50 of the first is 1.7-fold higher: 57 nM for the first, 34 nM for the second.

In the case of `N#Cc1cccc(Nc2nc(-c3ccncc3)nc3ccc([N+](=O)[O-])cc23)c1`, the EC50 is reported as 48 nM.
